# Assays:
# BCL-2 [G101V] = BCL-2 [G101V] (Homo sapiens (Human), UniProt P10415, G101V); assay: BCL-2 [G101V] TR-FRET Assay (primary PPI inhibition); type: binding; conditions: 60 min incubation, read-out: BCL2[G101V] IC50
# Description: Example C. BCL-2 [G101V]TR-FRET Assay
# (§1) The following assay concentrations and times were used: 0.22 ng/μl of BCL-2 (SinoBiological, #10195-H08E1), 5 μL of 1:100 anti-His Tb-labeled donor, 5 μL of 1:100 Dye-labeled acceptor, 5 μL of 1:40 BCL-2 Peptide Ligand (BPS Bioscience, #50223), and 2 μL of 200× test compound, with 60 min incubation time (final concentration of DMSO 0.5%). The results of the assay were read using a plate reader with the following parameters: TR FRET, 340ex/620 and 665em; 60 usec Delay; and 500 usec integration.
# (§2) Instrumentation: CLARIOstar Plus (BMG LABTECH); Biomek FX for liquid handling (Beckman Coulter).
# BCL-xL = BCL-xL (Homo sapiens (Human), UniProt Q07817); assay: BCL-xL TR-FRET Assay (primary PPI inhibition); type: binding; conditions: 60 min incubation, read-out: BCLxL IC50
# Description: Example B. BCL-xL TR-FRET Assay (BPS Bioscience, #50223)
# as §1, with “10.5 ng” for “0.22 ng/μl”, “BCL-xL,” for “BCL-2 (SinoBiological, #10195-H08E1),”, “1:120” for “1:100”, “1:96 BCL-xL” for “1:40 BCL-2”, “Ligand,” for “Ligand (BPS Bioscience, #50223), and”
# as §2
# BCL-2 = BCL-2 (Homo sapiens (Human), UniProt P10415); assay: BCL-2 TR-FRET Assay (primary PPI inhibition); type: binding; conditions: 60 min incubation, read-out: BCL2 IC50
# Description: Example A. BCL-2 TR-FRET Assay (BPS Bioscience, #50222)
# The following assay concentrations and times were used: 3 ng of BCL-2, 5 μL of 1:100 anti-His Tb-labeled donor, 5 μL of 1:100 Dye-labeled acceptor, 5 µL of 1:40 BCL-2 Peptide Ligand, and 2 μL of 200× test compound, with 60 min incubation time (final concentration of DMSO 0.5%). The results of the assay were read using a plate reader with the following parameters: TR FRET, 340ex/620 and 665em; 60 usec Delay; and 500 usec integration.
# as §2
# [1] = system: caspase-3 and -7 activities in RS4-11 cells; assay: Caspase-3/7 activation (Caspase-Glo 3/7) in RS4-11 cells; type: cell-based; conditions: Homo sapiens, 3.5 h, read-out: Cas-3/7 EC50
# Description: Example E. Caspase-3/7 Activation
# Assay Principle: The Caspase-Glo 3/7 Assay is homogeneous, luminescent assay that measures caspase-3 and -7 activities. The assay provides a luminogenic caspase-3/7 substrate, which contains the tetrapeptide sequence DEVD, in a reagent optimized for caspase activity.
# Assay Procedure: Incubate RS4-11 (ATCC, CRL-1873) cells in the 384-well white plate (Corning, #3570) with varying concentrations of test compounds for 3.5 h in a humidified incubator at 37° C. and 5% CO2 […]. Add 15 μL of the Caspase-Glo (Promega, #8212) reagent to each well and to incubate the plate for 30 min at rt. Read on the CLARIOstar Plus (BMG LABTECH) instrument.
# as §2
# [2] = Cell viability assay (CellTiter-Glo), HEK293; type: cell-based; conditions: human, HEK293 cells, 3 days of incubation
# Description: (§3) Example D. Cell Viability Assays (Cell lines HEK293, RS4-11, MOLT-4)
# (§4) Cells were seeded at a density of 4000 cells per well in the 384-well clear bottom plate (Greiner Cat #781090) to the 45 μL total volume of either DMEM (PanEco, Cat #C420, for HEK293) or RPMI (PanEco, Cat #C330, for other cell lines) with 10% FBS(HyClone Cat #SV30160.03). Prior to adding compounds, the HEK293 cells were allowed to adhere overnight at 37° C. and 5% CO2. The 500× compounds solutions in DMSO(Sigma Cat #D2650) were dispersed into a 384-well compound plate (Diamond Well Plate, Axigen, Cat #P-384-120 SQ-C—S) including only DMSO control. The 1 μL aliquots of the 500× compounds from the compound plate were added to 49 μL of culture medium in the Dilution plate (Diamond Well Plate, Axigen, Cat #P-384-120 SQ-C—S), mixed and then the 5 μL aliquts of the 10× compound solutions were transferred to cells followed by centrifugation at 100 g for 1 min. Final DMSO concentration was 0.2%. After 3 days of incubation the 10 μL aliquots of CellTiter-Glo (Promega, CAT #G7572) were added to the cells, plate was centrifuged at 100 g for 1 min and the luminescence was measured on the CLARIOstar Plus (BMG LABTECH) instrument.
# as §2
# MOLT-4 cells = assay: Cell viability assay (CellTiter-Glo), MOLT-4; type: cell-based; conditions: Homo sapiens, 72 h, 3 days of incubation
# Description: as §3, §4, §2
# RS4-11 cells = assay: Cell viability assay (CellTiter-Glo), RS4-11; type: cell-based; conditions: Homo sapiens, RS4-11, 72 h, 3 days of incubation
# Description: as §3, §4, §2
# BCL-xL, sequence (Q07817 whole entry): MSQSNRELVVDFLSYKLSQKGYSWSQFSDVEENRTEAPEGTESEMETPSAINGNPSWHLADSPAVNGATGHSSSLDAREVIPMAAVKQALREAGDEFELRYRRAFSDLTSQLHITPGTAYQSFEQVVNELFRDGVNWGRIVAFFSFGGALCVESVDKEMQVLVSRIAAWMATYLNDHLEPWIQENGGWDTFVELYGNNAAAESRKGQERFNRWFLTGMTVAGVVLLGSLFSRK
smiles,measurement,setting,value
"N#Cc1ccccc1CN(C(=O)c1cc(-c2cc(Cl)ccc2C(=O)N2Cc3ccccc3C[C@H]2CN2CCOCC2)n2c1CCCC2)c1ccc(Cl)cc1 [Compound 1, 3-[5-chloro-2-[(3S)-3-(morpholinomethyl)-3,4-dihydro-1H-isoquinoline-2-carbonyl]phenyl]-N-(4-chlorophenyl)-N-[(2-cyanophenyl)methyl]-5,6,7,8-tetrahydroindolizine-1-carboxamide]",IC50,BCL-2 [G101V],> 1000 nM
same,IC50,BCL-xL,> 5000 nM
same,IC50,BCL-2,> 50 nM
same,EC50,[1],> 500 nM
"COc1cccc(CN(C(=O)c2cc(-c3cc(Cl)ccc3C(=O)N3Cc4ccccc4C[C@H]3CN3CCOCC3)n3c2CCCC3)c2ccc(Cl)cc2)c1C [Compound 2, 3-[5-chloro-2-[(3S)-3-(morpholinomethyl)-3,4-dihydro-1H-isoquinoline-2-carbonyl]phenyl]-N-(4-chlorophenyl)-N-[(3-methoxy-2-methyl-phenyl)methyl]-5,6,7,8-tetrahydroindolizine-1-carboxamide]",IC50,BCL-2 [G101V],> 1000 nM
same,IC50,BCL-xL,> 5000 nM
same,IC50,BCL-2,10 to 50 nM
same,EC50,[1],> 500 nM
"N#Cc1ccccc1CN(C(=O)c1cc(-c2cc(Cl)ccc2C(=O)N2Cc3ccccc3C[C@H]2CN2CCOCC2)n2c1CCCC2)c1ccc(O)cc1 [Compound 3, 3-[5-chloro-2-[(3S)-3-(morpholinomethyl)-3,4-dihydro-1H-isoquinoline-2-carbonyl]phenyl]-N-[(2-cyanophenyl)methyl]-N-(4-hydroxyphenyl)-5,6,7,8-tetrahydroindolizine-1-carboxamide]",IC50,BCL-2 [G101V],≤ 100 nM
same,IC50,BCL-xL,> 5000 nM
same,CC50 at 3 days,[2],10000 to 25000 nM
same,CC50,MOLT-4 cells,≤ 5000 nM
same,IC50,BCL-2,≤ 5 nM
same,CC50,RS4-11 cells,100 to 200 nM
same,EC50,[1],200 to 500 nM
"COc1cccc(CN(C(=O)c2cc(-c3cc(Cl)ccc3C(=O)N3Cc4ccccc4C[C@H]3CN3CCOCC3)n3c2CCCC3)c2ccc(O)cc2)c1C [Compound 4, 3-[5-chloro-2-[(3S)-3-(morpholinomethyl)-3,4-dihydro-1H-isoquinoline-2-carbonyl]phenyl]-N-(4-hydroxyphenyl)-N-[(3-methoxy-2-methyl-phenyl)methyl]-5,6,7,8-tetrahydroindolizine-1-carboxamide]",IC50,BCL-2 [G101V],100 to 1000 nM
same,IC50,BCL-xL,> 5000 nM
same,CC50 at 3 days,[2],10000 to 25000 nM
same,CC50,MOLT-4 cells,≤ 5000 nM
same,IC50,BCL-2,≤ 5 nM
same,CC50,RS4-11 cells,≤ 100 nM
same,EC50,[1],≤ 200 nM
"COc1cccc(CN(C(=O)c2cc(-c3cc(NC(C)=O)ccc3C(=O)N3Cc4ccccc4C[C@H]3CN3CCOCC3)n(C)c2C)c2ccc(O)cc2)c1C [Compound 48, 5-[5-acetamido-2-[(3S)-3-(morpholinomethyl)-3,4-dihydro-1H-isoquinoline-2-carbonyl]phenyl]-N-(4-hydroxyphenyl)-N-[(3-methoxy-2-methyl-phenyl)methyl]-1,2-dimethyl-pyrrole-3-carboxamide]",IC50,BCL-2 [G101V],100 to 1000 nM
same,IC50,BCL-xL,2000 to 5000 nM
same,IC50,BCL-2,5 to 10 nM
"COc1cccc(CN(C(=O)c2cc(-c3cc(S(C)(=O)=O)ccc3C(=O)N3Cc4ccccc4C[C@H]3CN3CCOCC3)n(C)c2C)c2ccc(O)cc2)c1C [Compound 49, N-(4-hydroxyphenyl)-N-[(3-methoxy-2-methyl-phenyl)methyl]-1,2-dimethyl-5-[5-methylsulfonyl-2-[(3S)-3-(morpholinomethyl)-3,4-dihydro-1H-isoquinoline-2-carbonyl]phenyl]pyrrole-3-carboxamide]",IC50,BCL-2 [G101V],≤ 100 nM
same,IC50,BCL-xL,2000 to 5000 nM
same,CC50 at 3 days,[2],> 25000 nM
same,CC50,MOLT-4 cells,5000 to 10000 nM
same,IC50,BCL-2,≤ 5 nM
same,CC50,RS4-11 cells,≤ 100 nM
"COc1cc(-c2cc(C(=O)N(Cc3cccc(OC)c3C)c3ccc(O)cc3)c(C)n2C)c(C(=O)N2Cc3ccccc3C[C@H]2CN2CCOCC2)cc1C#N [Compound 58, 5-[4-cyano-5-methoxy-2-[(3S)-3-(morpholinomethyl)-3,4-dihydro-1H-isoquinoline-2-carbonyl]phenyl]-N-(4-hydroxyphenyl)-N-[(3-methoxy-2-methyl-phenyl)methyl]-1,2-dimethyl-pyrrole-3-carboxamide]",IC50,BCL-xL,2000 to 5000 nM
same,CC50 at 3 days,[2],> 25000 nM
same,CC50,MOLT-4 cells,≤ 5000 nM
same,IC50,BCL-2,> 50 nM
same,CC50,RS4-11 cells,> 200 nM
same,EC50,[1],> 500 nM
"COc1cccc(CN(C(=O)c2cc(-c3cc([N+](=O)[O-])ccc3C(=O)N3Cc4ccccc4C[C@H]3CN3CCOCC3)n(C)c2C)c2ccc(O)cc2)c1C [Compound 61, N-(4-hydroxyphenyl)-N-[(3-methoxy-2-methyl-phenyl)methyl]-1,2-dimethyl-5-[2-[(3S)-3-(morpholinomethyl)-3,4-dihydro-1H-isoquinoline-2-carbonyl]-5-nitro-phenyl]pyrrole-3-carboxamide]",IC50,BCL-xL,> 5000 nM
same,CC50 at 3 days,[2],> 25000 nM
same,CC50,MOLT-4 cells,≤ 5000 nM
same,IC50,BCL-2,≤ 5 nM
same,CC50,RS4-11 cells,≤ 100 nM
same,EC50,[1],200 to 500 nM
"Cc1c(C(=O)N(Cc2ccccc2C#N)c2ccc(O)cc2)cc(-c2cc([N+](=O)[O-])ccc2C(=O)N2Cc3ccccc3C[C@H]2CN2CCOCC2)n1C [Compound 62, N-[(2-cyanophenyl)methyl]-N-(4-hydroxyphenyl)-1,2-dimethyl-5-[2-[(3S)-3-(morpholinomethyl)-3,4-dihydro-1H-isoquinoline-2-carbonyl]-5-nitro-phenyl]pyrrole-3-carboxamide]",IC50,BCL-xL,> 5000 nM
same,CC50 at 3 days,[2],> 25000 nM
same,CC50,MOLT-4 cells,≤ 5000 nM
same,IC50,BCL-2,≤ 5 nM
same,CC50,RS4-11 cells,≤ 100 nM
same,EC50,[1],≤ 200 nM
"COc1cccc(CN(C(=O)c2cc(-c3cc(C(N)=O)ccc3C(=O)N3Cc4ccccc4C[C@H]3CN3CCOCC3)n(C)c2C)c2ccc(O)cc2)c1C [Compound 64, 5-[5-carbamoyl-2-[(3S)-3-(morpholinomethyl)-3,4-dihydro-1H-isoquinoline-2-carbonyl]phenyl]-N-(4-hydroxyphenyl)-N-[(3-methoxy-2-methyl-phenyl)methyl]-1,2-dimethyl-pyrrole-3-carboxamide]",IC50,BCL-xL,> 5000 nM
same,CC50 at 3 days,[2],> 25000 nM
same,CC50,MOLT-4 cells,> 10000 nM
same,IC50,BCL-2,≤ 5 nM
same,CC50,RS4-11 cells,≤ 100 nM
same,EC50,[1],> 500 nM
"COc1ccccc1CN(C(=O)c1cc(-c2cc(Cl)ccc2C(=O)N2Cc3ccccc3C[C@H]2CN2CCOCC2)n(C)c1C)c1ccc2[nH]ncc2c1 [Compound 69, 5-[5-chloro-2-[(3S)-3-(morpholinomethyl)-3,4-dihydro-1H-isoquinoline-2-carbonyl]phenyl]-N-(1H-indazol-5-yl)-N-[(2-methoxyphenyl)methyl]-1,2-dimethyl-pyrrole-3-carboxamide]",IC50,BCL-xL,> 5000 nM
same,CC50 at 3 days,[2],> 25000 nM
same,CC50,MOLT-4 cells,> 10000 nM
same,IC50,BCL-2,10 to 50 nM
same,CC50,RS4-11 cells,> 200 nM
same,EC50,[1],> 500 nM

# Reference: US20250115577A1, “BCL-2 Inhibitors” (Eil Therapeutics, Inc., priority 2021, published 2025)
